For data set [1], the system named is paclitaxel treated patients with breast or ovarian cancer. The data set can be described thus: Paclitaxel dose modification due to peripheral neuropathy in patients using P-gp inhibitors (logistic regression). Format: in vivo, human. Particulars: for Multivariate analysis Odds-ratio of paclitaxel dose modification due to peripheral neuropathy: adjusted for age, body surface, tumor type, cancer stage, treatment schedule and previous chemotherapy; for Univariate analysis Odds-ratio of paclitaxel dose modification due to peripheral neuropathy: concomitant use with paclitaxel, 503 patients database; for increased risk of dose modification due to peripheral neuropathy: paclitaxel-treated patients, text summary of the multivariate analysis. The source says:
Data were log-transformed to ensure normality of data.
To assess if P-gp inhibition leads to increased risk of peripheral neuropathy we used a previously described database of 503 paclitaxel treated patients with breast or ovarian cancer (Sanchez-Barroso L et al. The Oncologist. 2018 Nov. 23). […] P-gp inhibitors were selected based on two literature reviews (see comments under table 1). From these reviews, we identified drugs listed as P-gp inhibitors (drugs classified as inhibitor in either review), and, within these, strong P-gp inhibitors (drugs classified as inhibitor in both reviews).
The association from univariate and multivariate analysis between paclitaxel dose modification due to peripheral neuropathy and concomitant P-gp inhibitor use is shown in Table 1.

Data set [2] relates to iPSC-derived sensory neurons. In words: Vincristine neurotoxicity in iPSC-derived sensory neurons with or without MK-571 or rifampicin. Format: cell-based, human. An excerpt:
Sensory neurons were generated from human induced pluripotent stem cells (iPSCs) by implementing the well-established protocol by Chambers et. al. (Nat Biotech 2012). The neuronal differentiation was initiated when iPSCs achieved 70-80% confluency using KSR medium, which contained 82% KnockOut DMEM (Gibco, 10829-018) and 15% KnockOut Serum Replacement (KSR, ThermoFisher, 10828-028), 1% GlutaMAX-I (Gibco, 35050-038), 1% mini-mum essential medium non-essential amino acids (MEM-NEAA, Gibco, 11140-035), 1% P/S and 0.055 mM β-mercaptoethanol (Gibco, 21985023).
On days 0-5, SMAD signaling was inhibited by adding 0.1 μM LDN-193189 (Selleck, S7507) and 10 μM SB-431542 (Selleck, S1067) to the medium. Medium was changed daily, and N2 medium was added with 25% increments every other day starting on day 4 (100% N2 on day 10). N2 medium consists of 97% Neurobasal medium (Gibco, 21103-049) with 1% N2 Supplement (Gibco, 17502-048), 1% B27 Supplement (Gibco, 17504-044) and 1% P/S. On days 2-10, nociceptor induction was initiated with the addition of the three inhibitors, 3 μM CHIR99021 (Selleck, S1263), 10 μM SU5402 (Selleck, S7667) and 10 μM DAPT (Selleck, S2215).
For long-term cultivation starting on day 12, cells were washed with PBS÷ and incubated with Accutase for 30 min to obtain a single-cell suspension. After incubation, the culture plates were gently rocked and cellular clumps were mechanically dissociated by pipetting up and down. The cells were filtered through a 40 μm nylon cell strainer (Corning, 431750) and centrifuged (800 rpm, 5 min, RT). Following resuspension of the pellet, iPSC-SNs were seeded as single cells on PLO/LAM/FN-coated culture plates at a density of 150,000 viable cells/cm^2. […]
Cells were treated with vincristine from 0.001-1 μM for 24 hours and immunolabeled with peripherin antibody. Quantification of network was done using ImageJ and MIPAR. […]

For another data set, the system named is ATF-3. The data set can be described thus: ATF-3 expression in iPSC-derived sensory neurons (RT-qPCR). Conditions: paclitaxel, dose-dependent. It is filed as cell-based, human. In general terms: In qPCR the cycle at which signal appears reflects the starting amount.
A further data set relates to TRPV1. In words: TRPV1 expression in iPSC-derived sensory neurons (RT-qPCR). Format: cell-based, human. Conditions: paclitaxel, dose-dependent.
The next data set has as its target T1, P-gp (Homo sapiens, UniProt P08183).
T1 construct: indicated expression of the efflux transporters P-gp and MRP1 in both SH-SY5Y cells and human dorsal root ganglion; endogenous in cells; host or cells: differentiated SH-SY5Y cells (neurons)
In words: Intracellular paclitaxel concentration (LC-MS/MS) in differentiated SH-SY5Y cells under P-gp inhibition. Format: cell-based. Conditions: 10 μM paclitaxel, 1 hour, P-gp inhibition by 4 μM valspodar, p<0.001.

In data set [3] the test system is sensory neurons derived from induced pluripotent stem cells. In words: Paclitaxel damage in iPSC-derived sensory neurons, peripherin immunolabelling. Format: cell-based, human. Particulars: paclitaxel 24 hours.
Method: Cells were treated with paclitaxel for 24 hours and immunolabeled using an antibody for peripherin.
Cells were pretreated for 48 hours with 25 μM rifampicin prior to addition of paclitaxel treatment.
For data set [4], the system named is SH-SY5Y-derived neurons.
Method: (§1) SH-SY5Y cells (94030304, Sigma-Aldrich) were kept in DMEM/F:12 (11320074, ThermoFisher) with 15% heat-inactivated fetal bovine serum (hiFBS, F9665 Sigma-Aldrich), 1% penicillin/streptomycin (p/s) and 2 mM glutamine. Cells were split 1:10-1:20 using 0.05% trypsin-EDTA (10779413, Fisher Scientific) at 70-80% confluence.
(§2) Paclitaxel (T7402, Sigma-Aldrich) was diluted serially in DMSO (D2650, Sigma-Aldrich) and these stock solutions diluted 1:500 to ensure 0.2% DMSO in all samples. […] Valspodar (SML0572, Sigma-Aldrich) were used at a final concentration of 4 μM. Antibody against TUBB3 (MA1-118, ThermoFisher Scientific) was used at 1:1000.
(§3) Briefly, SH-SY5Y cells below passage 15 were seeded at 5-6×10^3 cells/cm^2 in uncoated 6-well plates (day 0 (D0)) and left overnight in growth media. The next day (D1) differentiation was initiated using DMEM/F:12 media with 2.5% hiFBS, 1% p/s, 2 mM glutamine and 10 μM retinoic acid (RA, R2625 Sigma-Aldrich) and media was replaced at D3 and D5. On D7 cells were split 1:1 using 0.05% trypsin-EDTA to uncoated dishes and on D8 hiFBS content was reduced to 1%. On D10 the cells were split 1:1 to extracellular matrix-coated dishes (E0282, Sigma-Aldrich). On D11 media was replaced with the final differentiation media containing neurobasal media (21103049, ThermoFisher) with 1×B27 supplement (17504044, ThermoFisher), 20 mM KCl (10697623, Fisher Scientific), 1% p/s, 1× Glutamax, 50 ng/ml brain-derived neurotrophic factor (BDNF, CST-3897S, Peprotech), 2 mM dibutyryl cyclic AMP (db-cAMP, D0627 Sigma-Aldrich) and 10 μM RA. Media was replaced on D14 and D17 and cells were tested and confirmed as fully differentiated on D18 and used for downstream applications as outlined below.
(§4) Both differentiated and undifferentiated SH-SY5Y cells were fixed using 4% paraformaldehyde. Cells were permeabilized using 0.25% Triton X-100 and unspecific binding was blocked using bovine serum albumin (BSA). Primary antibodies were incubated overnight at 4° C. and secondary antibodies were incubated for one hour at room temperature. Nuclei were stained using 1.5 μM DAPI for 5 minutes. Imaging was performed using a Leica DMI4000B microscope. Neurite morphology was assessed using the ImageJ modules CellCounter and Simple Neurite Tracer. To determine number of neurites per cell, CellCounter was used to count the number of cells with 0, 1, 2 . . . n neurites. Neurite length was determined using Simple Neurite Tracer. For both endpoints, at least five images of each condition from three separate differentiations were used. ImageJ analysis was blinded to the person assessing length and number of neurites to ensure no bias. […]
Data set [5] relates to SH-SY5Y-derived neurons. The data set can be described thus: Neurite number and length in differentiated SH-SY5Y cells after paclitaxel with or without valspodar.
Method: as §1, §2, §3, §4
Where [6] appears, read: vincristine 0.001-1 μM, 24 hours.

Structures are written as SMILES.

T1 sequence (P08183 whole entry): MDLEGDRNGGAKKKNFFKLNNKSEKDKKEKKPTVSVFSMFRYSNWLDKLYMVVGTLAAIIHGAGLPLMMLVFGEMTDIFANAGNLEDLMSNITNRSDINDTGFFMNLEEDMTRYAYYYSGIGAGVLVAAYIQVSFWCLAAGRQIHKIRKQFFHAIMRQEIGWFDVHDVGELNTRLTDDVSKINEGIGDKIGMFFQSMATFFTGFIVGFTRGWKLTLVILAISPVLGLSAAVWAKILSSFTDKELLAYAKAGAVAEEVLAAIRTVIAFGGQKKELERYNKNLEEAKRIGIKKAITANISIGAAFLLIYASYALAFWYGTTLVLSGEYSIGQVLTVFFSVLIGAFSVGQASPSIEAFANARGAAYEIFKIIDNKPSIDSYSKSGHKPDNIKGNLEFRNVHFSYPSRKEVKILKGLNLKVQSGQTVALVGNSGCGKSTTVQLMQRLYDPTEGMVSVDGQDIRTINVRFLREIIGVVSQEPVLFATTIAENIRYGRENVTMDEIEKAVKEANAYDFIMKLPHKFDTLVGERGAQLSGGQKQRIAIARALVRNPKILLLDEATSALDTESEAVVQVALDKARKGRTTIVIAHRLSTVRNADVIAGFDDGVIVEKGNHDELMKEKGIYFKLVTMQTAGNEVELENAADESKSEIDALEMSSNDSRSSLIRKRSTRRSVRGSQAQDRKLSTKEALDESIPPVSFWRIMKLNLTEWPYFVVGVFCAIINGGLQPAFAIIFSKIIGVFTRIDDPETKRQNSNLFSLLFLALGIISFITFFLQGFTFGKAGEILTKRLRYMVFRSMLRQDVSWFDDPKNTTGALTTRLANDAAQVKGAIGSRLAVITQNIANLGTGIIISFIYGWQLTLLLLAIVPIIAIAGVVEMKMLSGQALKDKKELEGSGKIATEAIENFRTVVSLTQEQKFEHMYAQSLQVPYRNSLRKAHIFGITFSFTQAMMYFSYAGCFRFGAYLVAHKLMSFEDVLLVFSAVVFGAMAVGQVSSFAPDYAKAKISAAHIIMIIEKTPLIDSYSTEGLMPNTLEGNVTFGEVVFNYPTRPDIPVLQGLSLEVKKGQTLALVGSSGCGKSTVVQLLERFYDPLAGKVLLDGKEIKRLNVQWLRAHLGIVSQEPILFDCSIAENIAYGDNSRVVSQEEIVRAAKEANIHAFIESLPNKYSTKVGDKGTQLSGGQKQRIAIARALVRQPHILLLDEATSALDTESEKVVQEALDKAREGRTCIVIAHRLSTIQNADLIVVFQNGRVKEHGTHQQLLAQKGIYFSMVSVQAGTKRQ
Method for ATF-3: (§5) Induced pluripotent stem cells were differentiated to sensory neurons for 35-40 days as described above. Rifampicin was added 48 hours ahead of paclitaxel to increase expression of efflux transporters. Expression levels was determined using real-time qualitative polymerase chain reaction (RT-qPCR) for TRPV1 and ATF-3.
Method for TRPV1: as §5

Consider `CC(C)c1c(C(=O)Nc2ccccc2)c(-c2ccccc2)c(-c2ccc(F)cc2)n1CC[C@@H](O)C[C@@H](O)CC(=O)O` [Atorvastatin], for which, in data set [1], the “Multivariate analysis Odds-ratio of paclitaxel dose modification due to peripheral neuropathy” value worked out at 7.01, the “Univariate analysis Odds-ratio of paclitaxel dose modification due to peripheral neuropathy” value came out at 9.41 and the “increased risk of dose modification due to peripheral neuropathy” value was 7.0 fold.

In the case of `CC[C@]1(O)C[C@H]2CN(CCc3c([nH]c4ccccc34)[C@@](C(=O)OC)(c3cc4c(cc3OC)N(C=O)[C@H]3[C@@](O)(C(=O)OC)[C@H](OC(C)=O)[C@]5(CC)C=CCN6CC[C@]43[C@@H]65)C2)C1` [vincristine], in data set [2] (setting [6]), the neurite length result is “shortened in a dose-dependent manner” and the “number of neurites extending from a cluster of sensory neurons” value is on record as “dose-dependent decrease”.

For `CCC(C)(C)C(=O)O[C@H]1C[C@@H](C)C=C2C=C[C@H](C)[C@H](CC[C@@H]3C[C@@H](O)CC(=O)O3)[C@H]21` [Simvastatin], in data set [1], the “Multivariate analysis Odds-ratio of paclitaxel dose modification due to peripheral neuropathy” value was 0.31, the “Univariate analysis Odds-ratio of paclitaxel dose modification due to peripheral neuropathy” value was found to be 0.60 and the “increased risk of dose modification due to peripheral neuropathy” value is on record as “not at increased risk”.

Consider `CC(=O)O[C@H]1C(=O)[C@@]2(C)[C@H]([C@H](OC(=O)c3ccccc3)[C@]3(O)C[C@H](OC(=O)[C@H](O)[C@@H](NC(=O)c4ccccc4)c4ccccc4)C(C)=C1C3(C)C)[C@]1(OC(C)=O)CO[C@@H]1C[C@@H]2O` [Paclitaxel], for which the ATF-3 expression result in the data set with ATF-3 was “substantially increased expression”. In addition, the TRPV1 expression entry with TRPV1 is given as “substantially increased expression”. Moreover, the “increase in intracellular accumulation of paclitaxel on inhibition of P-gp” value on P-gp was greater than 3 fold. In addition, in data set [3], the “damage to sensory neurons” value is “marked damage”. Also, in the data set with SH-SY5Y-derived neurons [4], the neurite length entry is “significantly reduced” and the number of neurites result is given as “significantly reduced”.

Regarding `C/C=C/C[C@@H](C)C(=O)[C@H]1C(=O)N[C@@H](C(C)C)C(=O)N(C)CC(=O)N(C)[C@@H](CC(C)C)C(=O)N[C@@H](C(C)C)C(=O)N(C)[C@@H](CC(C)C)C(=O)N[C@@H](C)C(=O)N[C@H](C)C(=O)N(C)[C@@H](CC(C)C)C(=O)N(C)[C@@H](CC(C)C)C(=O)N(C)[C@@H](C(C)C)C(=O)N1C` [valspodar], the “effect on neuronal morphology without paclitaxel present” value in the data set with SH-SY5Y-derived neurons [5] (4 μM valspodar alone) is reported as “did not affect”. Further, the “effect on neuronal toxicity of paclitaxel (number and length of neurites)” value in the data set with SH-SY5Y-derived neurons [5] (4 μM valspodar together with paclitaxel, 24 hours, ANOVA p<0.001) is “substantially exacerbated”.

Take `CN(C)C(=O)CCSC(SCCC(=O)O)c1cccc(/C=C/c2ccc3ccc(Cl)cc3n2)c1` (centres unmarked) [MK-571]: in data set [2] (4 μM MK-571 one hour ahead of vincristine, low vincristine concentrations), the “effect of MRP1 inhibition on vincristine neurotoxicity” value was “substantially increased neurotoxicity”.
